Where “and” joins values, the source holds several entries; their conditions need not be identical. Identical values can stand only once. HELM strings list units from the 5' end as sugar, base in round brackets, then linkage (d deoxyribose, r ribose, m 2'-O-methyl, p phosphodiester). Strings are as the collection lists them, not checked against the first reports. ss, as = sense and antisense strand; [una] = unlocked nucleic acid; [s4r] = 4'-thioribose
Details: siRNA
Further: test system not given here.

Substance	target mRNA knockdown
RNA1{[s4r](C)p.[s4r](G)p.r(U)p.r(A)p.r(C)p.r(G)p.r(C)p.r(G)p.r(G)p.r(A)p.r(A)p.r(U)p.r(A)p.r(C)p.r(U)p.r(U)p.r(C)p.r(G)p.r(A)p.r(T)p.r(T)}|RNA2{[s4r](U)p.[s4r](C)p.r(G)p.r(A)p.r(A)p.r(G)p.r(U)p.r(A)p.r(U)p.r(U)p.r(C)p.r(C)p.r(G)p.r(C)p.r(G)p.r(U)p.r(A)p.[s4r](C)p.[s4r](G)p.r(T)p.r(T)}$$$RNA1{StrandType:ss}|RNA2{StrandType:as}$	90.4%
RNA1{[s4r](C)p.[s4r](G)p.r(U)p.r(A)p.r(C)p.r(G)p.r(C)p.r(G)p.r(G)p.r(A)p.r(A)p.r(U)p.r(A)p.r(C)p.r(U)p.r(U)p.r(C)p.r(G)p.r(A)p.r(T)p.r(T)}|RNA2{r(U)p.r(C)p.r(G)p.r(A)p.r(A)p.r(G)p.r(U)p.r(A)p.r(U)p.r(U)p.r(C)p.r(C)p.r(G)p.r(C)p.r(G)p.r(U)p.r(A)p.[s4r](C)p.[s4r](G)p.r(T)p.r(T)}$$$RNA1{StrandType:ss}|RNA2{StrandType:as}$	91.3%
RNA1{[s4r](C)p.[s4r](G)p.r(U)p.r(A)p.r(C)p.r(G)p.r(C)p.r(G)p.r(G)p.r(A)p.r(A)p.r(U)p.r(A)p.r(C)p.r(U)p.r(U)p.r(C)p.r(G)p.r(A)p.r(T)p.r(T)}|RNA2{r(U)p.r(C)p.r(G)p.r(A)p.r(A)p.r(G)p.r(U)p.r(A)p.r(U)p.r(U)p.r(C)p.r(C)p.r(G)p.r(C)p.r(G)p.r(U)p.r(A)p.r(C)p.r(G)p.r(T)p.r(T)}$$$RNA1{StrandType:ss}|RNA2{StrandType:as}$	95.5%
RNA1{[s4r](C)p.r(G)p.[s4r](U)p.r(A)p.[s4r](C)p.r(G)p.[s4r](C)p.r(G)p.r(G)p.r(A)p.r(A)p.[s4r](U)p.r(A)p.[s4r](C)p.[s4r](U)p.[s4r](U)p.[s4r](C)p.r(G)p.r(A)p.r(T)p.r(T)}|RNA2{r(U)p.r(C)p.r(G)p.r(A)p.r(A)p.r(G)p.r(U)p.r(A)p.r(U)p.r(U)p.r(C)p.r(C)p.r(G)p.r(C)p.r(G)p.r(U)p.r(A)p.r(C)p.r(G)p.r(T)p.r(T)}$$$RNA1{StrandType:ss}|RNA2{StrandType:as}$	92.9%
RNA1{[s4r](C)p.r(G)p.r(U)p.r(A)p.[s4r](C)p.r(G)p.[s4r](C)p.r(G)p.r(G)p.r(A)p.r(A)p.r(U)p.r(A)p.[s4r](C)p.r(U)p.r(U)p.[s4r](C)p.r(G)p.r(A)p.r(T)p.r(T)}|RNA2{r(U)p.r(C)p.r(G)p.r(A)p.r(A)p.r(G)p.r(U)p.r(A)p.r(U)p.r(U)p.r(C)p.r(C)p.r(G)p.r(C)p.r(G)p.r(U)p.r(A)p.r(C)p.r(G)p.r(T)p.r(T)}$$$RNA1{StrandType:ss}|RNA2{StrandType:as}$	93.6%
RNA1{[una](A)p.r(C)p.r(A)p.r(G)p.r(A)p.r(G)p.r(U)p.r(C)p.r(C)p.r(C)p.r(U)p.r(C)p.r(A)p.r(A)p.r(A)p.r(C)p.r(A)p.r(G)p.r(A)p.[una](U)p.[una](U)}|RNA2{r(U)p.r(C)p.r(U)p.r(G)p.r(U)p.r(U)p.r(U)p.r(G)p.r(A)p.r(G)p.r(G)p.r(G)p.r(A)p.r(C)p.r(U)p.r(C)p.r(U)p.r(G)p.r(U)p.[una](U)p.[una](U)}$$$RNA1{StrandType:ss}|RNA2{StrandType:as}$	94% and 92% and 91%
RNA1{[una](U)p.r(G)p.r(A)p.r(A)p.r(U)p.r(C)p.r(A)p.r(G)p.r(A)p.r(A)p.r(G)p.r(A)p.r(U)p.r(G)p.r(A)p.r(A)p.r(G)p.r(U)p.r(C)p.r(A)p.r(A)}|RNA2{[una](G)p.r(A)p.r(C)p.r(U)p.r(U)p.r(C)p.r(A)p.r(U)p.r(C)p.r(U)p.r(U)p.r(C)p.r(U)p.r(G)p.r(A)p.r(U)p.r(U)p.r(C)p.r(A)p.r(A)p.r(G)}$$$RNA1{StrandType:ss}|RNA2{StrandType:as}$	0%
RNA1{d(G)p.d(C)p.d(A)p.d(G)p.d(C)p.d(A)p.d(C)p.d(G)p.d(A)p.d(C)p.d(U)p.d(U)p.d(C)p.d(U)p.d(U)p.d(C)p.d(A)p.d(A)p.d(G)p.r(T)p.r(T)}|RNA2{d(C)p.d(U)p.d(U)p.d(G)p.d(A)p.d(A)p.d(G)p.d(A)p.d(A)p.d(G)p.d(U)p.d(C)p.d(G)p.d(U)p.d(G)p.d(C)p.d(U)p.d(G)p.d(C)p.r(T)p.r(T)}$$$RNA1{StrandType:ss}|RNA2{StrandType:as}$	0%
